Results reported in patent US4740504A, “Antihyperlipidemic amine boranes” (United States Borax & Chemical Corp., priority 1987, dated 1988).

Molecular target: T1, ATP dependent citrate lyase (Mus musculus, UniProt Q91V92)
T1 construct: from tissue
T1 sequence (Q91V92 1-1091): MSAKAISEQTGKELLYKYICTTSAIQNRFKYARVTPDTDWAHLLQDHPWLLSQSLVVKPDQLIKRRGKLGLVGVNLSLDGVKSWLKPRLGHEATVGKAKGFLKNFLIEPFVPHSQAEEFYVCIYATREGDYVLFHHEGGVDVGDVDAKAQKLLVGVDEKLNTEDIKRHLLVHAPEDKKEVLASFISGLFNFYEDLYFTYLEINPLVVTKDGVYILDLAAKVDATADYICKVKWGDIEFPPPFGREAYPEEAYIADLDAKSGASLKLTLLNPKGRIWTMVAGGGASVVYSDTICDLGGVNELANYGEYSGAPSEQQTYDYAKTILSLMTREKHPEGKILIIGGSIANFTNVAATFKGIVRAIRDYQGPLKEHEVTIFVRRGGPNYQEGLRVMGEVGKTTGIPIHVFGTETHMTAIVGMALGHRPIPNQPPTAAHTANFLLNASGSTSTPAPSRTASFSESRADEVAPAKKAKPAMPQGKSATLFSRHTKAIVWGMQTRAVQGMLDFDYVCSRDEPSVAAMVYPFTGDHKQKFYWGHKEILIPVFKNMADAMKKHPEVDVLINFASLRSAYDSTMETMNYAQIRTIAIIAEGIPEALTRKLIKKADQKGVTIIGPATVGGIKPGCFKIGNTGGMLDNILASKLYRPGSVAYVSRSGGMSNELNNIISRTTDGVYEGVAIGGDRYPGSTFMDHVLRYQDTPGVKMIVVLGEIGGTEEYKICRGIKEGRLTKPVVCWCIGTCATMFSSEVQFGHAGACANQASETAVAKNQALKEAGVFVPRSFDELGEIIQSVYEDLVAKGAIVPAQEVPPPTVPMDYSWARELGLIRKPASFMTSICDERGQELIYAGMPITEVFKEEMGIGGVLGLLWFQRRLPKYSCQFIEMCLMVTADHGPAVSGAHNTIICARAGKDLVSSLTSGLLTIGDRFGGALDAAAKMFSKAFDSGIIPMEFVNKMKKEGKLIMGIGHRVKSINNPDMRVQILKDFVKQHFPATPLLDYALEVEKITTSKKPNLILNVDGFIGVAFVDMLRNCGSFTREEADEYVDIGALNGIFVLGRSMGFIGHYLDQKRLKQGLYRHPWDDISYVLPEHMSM
Experiment: Enzyme activity after in vivo dosing: ATP dependent citrate lyase
Conditions: 16 mg/kg/day

## [BH3-][N+](C)(C)CCCCCCCCCCCCCCCCCC [I, N-n-Octadecyl-N,N-Dimethylamine Borane]
  reduction of ATP dependent citrate lyase activity: 62%
